US20240180895A1, “USE OF KAPPA OPIOID RECEPTOR AGONISTS TO TREAT CARDIOVASCULAR DISEASE” (Board of Supervisors of Louisiana State University and …, priority 2021, published 2024)

What was measured:
[1] = tested on: conscious Sprague-Dawley rats; assay: Acute cardiovascular and renal excretory studies, i.v. bolus (Example 3); type: in vivo, rat
Description: Animals: Male Sprague-Dawley (SD) rats (Envigo Labs, Indianapolis, IN), 300-350 g, were individually housed under a 12 h light-dark cycle and allowed tap water and standard rodent diet ad libitum. Rats were randomly assigned to experimental groups for all acute and subacute studies. All procedures were approved by the Louisiana State University Health Sciences Center Institutional Animal Care and Use Committee and conducted in accordance with the National Institutes of Health guidelines for the care and use of animals.
Surgical Procedures: Aseptic technique was followed for all surgical procedures. On the morning of the experiment, rats were anesthetized with and maintained under inhaled 2% isoflurane, and polyethylene catheters (PE50; BD Diagnostics, Sparks, MD) were surgically inserted into the left femoral vein and left femoral artery for the infusion of saline and/or drug administration and the recording of arterial blood pressure, respectively. Subsequently, a suprapubic incision was made and a flanged polyethylene catheter (PE240; BD Diagnostics, Sparks, MD) was inserted into the bladder, exteriorized, and sutured to surrounding muscle and skin. Rats were then placed in an elevated restrainer (Krowicki & Kapusta, 2011) to recover from surgery and allow collection of urine. When acute experimental protocols were completed, rats were anesthetized via isoflurane and decapitated.
Acute Cardiovascular and Renal Excretory Studies: Following surgery, rats received an i.v. infusion of isotonic saline at 55 μL min^−1 throughout the duration of the experiment and were allowed 4-6 hours to recover from anesthesia. Arterial catheters were connected to a pressure transducer (MLT0670, ADInstruments, Sydney, Australia), which was connected to Powerlab 8/30 (ADInstruments) for recording of pulsatile and mean arterial blood pressure (MAP) and heart rate (HR). Blood pressure and HR were visualized using LabChart software (v8.1.5; ADInstruments). […] Following this control period, drug or vehicle (isotonic saline) was injected into the femoral vein catheter at a volume of 2 cc kg^−1, and urines were collected in 10 minute periods for a span of 90 minutes. […] All groups are n=6. Urine volume was measured gravimetrically, urine sodium and potassium concentrations were measured using flame photometry (model 943; Instrumentation Laboratories, Lexington, MA), and urine osmolality was measured using a vapor pressure osmometer (model 5600; WESCOR, Logan, UT).
Experimental Design and Analysis: All results are expressed as mean±SEM. […] Means between groups for total urine output, Na^+ concentration, K^+ concentration, and urine osmolality were compared using a Student's t-test. Statistical significance was characterized as P<0.05. Statistics were carried out using Prism 7.05 software (GraphPad Software, Inc., San Diego, CA) and IBM SPSS Statistics (IBM, Armonk, NY).

[2] = tested on: spontaneously hypertensive rats; assay: Chronic oral nalfurafine, radiotelemetry blood pressure (FIG. 18); type: in vivo, rat; conditions: nalfurafine 0.5 mg/kg oral once per day for 5 weeks
Description: (§1) Male spontaneously hypertensive rats (SHR; Charles Rivers) were single housed and allowed tap water and standard rodent diet ad libitum. All procedures and experiments were conducted in accordance with the National Institutes of Health guidelines for the care and use of animals.
(§2) Radiotelemetry transmitters (Data Sciences International, St. Paul, MN) were implanted into SHR for chronic recording of blood pressure and heart rate and followed as previously published.^56 Briefly, rats were anesthetized and maintained on 2% isoflurane and the right femoral artery was surgically exposed. The transmitter catheter was inserted into the femoral artery and advanced until reaching the abdominal aorta. The site exposing the femoral artery was sutured and rats were allowed 1 week of recovery. Telemetry data was analyzed using Ponemah software (DSI, St. Paul, MN).
Spontaneously hypertensive rats were orally administered (gavage) nalfurafine (0.5 mg/kg) or vehicle (water) once per day for 5 weeks following recovery from radiotelemetry transmitter insertion. Blood pressure was recorded once per week and the 12:00-14:00 time frame was plotted.
(§3) All results are expressed as mean±SEM. Statistically different changes for both experimental protocols were determined using 2-way ANOVA with repeated measures and were considered statistically different following a significant/value for an interaction between experimental group and time. Statistical significance was determined as P<0.05, and statistics were performed on Prism 7.05 software (GraphPad Software, Inc, San Diego, CA).

[3] = tested on: spontaneously hypertensive rats; assay: Chronic subcutaneous infusion of nalfurafine, radiotelemetry blood pressure (FIG. 19); type: in vivo, rat
Description: as §1, §2
In a separate cohort, spontaneously hypertensive rats were administered a subcutaneous nalfurafine infusion (0.3 mg/day) or vehicle (isotonic saline) using an osmotic pump (2ML4; Alzet) for 4 weeks. For the insertion of the osmotic pumps, rats were anesthetized and maintained under 2% isoflurane, a small incision was made at the nape, and the osmotic pump was inserted between the scapulae. The incision was sutured, and rats were returned to their home cages. Blood pressure was recorded throughout the entirety of the experiment and the 20:00-22:00 time frame was plotted.
as §3

[4] = in rats; cited from earlier work
hemodialysis patients = conditions: nearly 4000 hemodialysis patients (Kozono, Yoshitani, et al., 2018); cited from earlier work
[5] = i.v. bolus, cumulative 90-min urine, same doses, mean±SEM
[6] = subcutaneous infusion 0.3 mg/day, 30 days

CN(C(=O)/C=C/c1ccoc1)[C@@H]1CC[C@@]2(O)[C@H]3Cc4ccc(O)c5c4[C@@]2(CCN3CC2CC2)[C@H]1O5 [nalfurafine, Nalfurafine]
Duration of the increase in urine flow rate above control ([1]; after i.v. bolus): 50 min
Time of peak diuresis (urine flow rate) ([1]; after i.v. bolus): 30 min
Time of peak antikaliuresis ([1]; after i.v. bolus 5 μg kg−1): 50 min
Time of peak antinatriuresis ([1]; after i.v. bolus 5 μg kg−1): 40 min
Effect on heart rate (HR) ([1]; i.v. bolus, 90-min protocol): did not change HR
Potassium concentration [K+] in cumulative urine [1, 5]: 4.51±0.68 μeq ml^−1
Sodium concentration [Na+] in cumulative urine [1, 5]: 43.59±5.71 μeq ml^−1
Urine osmolality [1, 5]: 158.7 ± 16.78 mmol/kg
Mean arterial pressure (MAP), peak Δ ([1]; i.v. bolus, peak change vs group control value, time of peak 40 to 90 min as printed): −11 mmHg
Decrease in MAP ([1]; i.v. nalfurafine, as summarised in the discussion): ~10 mmHg
Diastolic blood pressure and heart rate vs vehicle [2]: no significant interaction between treatment over time for diastolic blood pressure or heart rate
Mean arterial pressure vs vehicle ([2]; 12:00-14:00 time frame): significantly lower mean arterial pressure at the 3-week time point
Systolic blood pressure vs vehicle ([2]; 12:00-14:00 time frame): significantly lower in the nalfurafine group compared to vehicle at 3, 4, and 5 weeks
Decrease in systolic, diastolic, and mean arterial pressure ([3]; 1 day of subcutaneous nalfurafine infusion 0.3 mg/day, 20:00-22:00 time frame): ~20 mmHg
Heart rate vs vehicle [3, 6]: significantly lower heart rate than the vehicle treated group on day 9, day 16-22, and day 25-30
Systolic, diastolic, mean arterial pressure and heart rate over time [3, 6]: did not demonstrate an increase in these parameters
Half-life [4]: ~6 h
Dysphoric adverse effects (hemodialysis patients): did not cause the typical dysphoric adverse effects
